Source: article PMC10447463, “Data-mining unveils structure–property–activity correlation of viral infectivity enhancing self-assembling peptides” (Nature Communications, 2023)
“And” between values parts separate entries of the source, which are not always exact repeats. Equal values may be shown once. Read-outs that look alike come from different tables or passages of the source.

How the values were obtained:
[1] = test system: HIV-1 infection of TZM-bl cells; experiment: HIV-1 infectivity enhancement assay, β-galactosidase luminescence; assay type: cell-based; conditions: for Rel-to EFC / n-fold to virus: Fig S8 panels B, D; for Log10 Inf. rel. to EF-C: log10 of HIV-1 infection of TZM-bl cells relative to EF-C, Fig S15 source data, asymmetric std dev errors
[2] = assay type: physicochemical; conditions: STD prep
[3] = assay type: physicochemical
Summary of the method: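 Preformed peptide fibrils (1 mg/mL) mixed with 50 µM ThT in PBS, 15 min at RT, fluorescence ex 440/em 488 nm versus PBS blank, triplicates. Zeta potential: peptides at 1 mg/mL in PBS pH 7.4, aged 1 d at RT, diluted in 1 mM KCl, Smoluchowski from electrophoretic mobility.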

[4] = β-sheet content by ATR-FT-IR; assay type: physicochemical
Summary of the method: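 To obtain β-sheet content, 1 mg/mL PNF solutions are freeze-dried and the powders recorded by ATR FT-IR at 2 cm^-1 resolution with 64 scans. Free monomer for CR is removed by 3 kDa MWCO centrifugation at 4 °C, and amines in filtrate and unfiltered material are detected with fluorescamine.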

[5] = Feb2021, Log10 of infectivity relative to EF-C
[6] = Feb2021, figures match the 1.3 µM column
[7] = Feb2021, infectivity relative to virus only
[8] = Feb2021, n-fold enhancement relative to EF-C
[9] = Feb2021, n-fold infectivity relative to EF-C
[10] = Feb2021 run, infectivity n-fold relative to virus alone
[11] = Feb2021 run, log10 of infectivity relative to EF-C
[12] = Feb2021 run, n-fold infectivity relative to EF-C
[13] = infectivity enhancement relative to EF-C
[14] = infectivity n-fold relative to virus alone
[15] = infectivity class (low / medium / high) of the peptide in the sequence-pattern analysis, Fig. S22-A4, class limits not given
[16] = ThT fluorescence relative to blank (42.1851851851852 a.u.)
[17] = ThT fluorescence relative to blank, blank = 42.1851851851852
[18] = relative to blank 42.1851851851852 a.u.
[19] = Feb2021, infectivity enhancement relative to EF-C
[20] = infectivity class (low / medium / high) of each library peptide, main list in c1-c6, same classes repeated in sub-lists of sequences containing the hydrophobicity/charge patterns P+,H0,P+,H0,P0,H0,P0, P+,H0,P0,H0,P0,H0,P0, P+,H0,P0,H0
[21] = Feb2021, 1.3 µM value relative to virus only (0 µM)
[22] = Feb2021, unrounded values of the 1.3 µM column

Row | Substance | Log10 of Rel to EFC (Feb2021) [1, 5] | Absolute Infectivity / RLU /s (Feb2021) [1, 6] [RLU /s] | n-fold to virus (Feb2021) [1, 7] | Rel-to EFC (Feb-2021) [1, 8] | Rel-to EFC (Feb-2021) [1, 9] | n-fold to virus (Feb2021) [1, 10] | Log10 of Rel to EFC (Feb2021) [1, 11] | Rel-to EFC (Feb-2021) [1, 12] | Log10 Inf. rel. to EF-C [1] | TEM: 1= fibrils, 0= aggregates (micelle), 0.5 = aggregates and fibrils, -1 = nothing obersved, STD prep [2] | Tht rel to blank (42.1851851851852) [3, 16] | Tht rel to blank (42.1851851851852) [3, 17] | Tht category (> 1.5 to blank = +) ([3]; category 1/0) | Tht rel to blank (42.1851851851852) [3, 18] | FTIR ß-sheet content/ % [4] [%] | FTIR ß-sheet content/ % ([4]; ATR-FT-IR) | Rel-to EFC (Feb-2021) [1, 19] | infectivity [1, 20] | n-fold to virus (Feb2021) [1, 21] | Absolute Infectivity / RLU /s (Feb2021) [1, 22] [RLU /s] | further results
1 | CKIKQII [MG4a] | -1.379 | 796.7 | 1.757 | 0.04182 | 0.04182 | 1.757 | -1.379 | 0.04182 | -1.379 | 0.5 | 3.914 | 3.914 | 1 (ThT. Cat is 1, if Rel. ThT >2) | 3.914 | 25 | 25% | – | – | – | – | Rel-to EFC [1, 13]: 0.04182; n-fold to virus [1, 14]: 1.757; infectivity [1, 15]: low; Rel-to EFC (Feb-2021) ([1]; infectivity enhancement relative to EF-C (=1), Feb2021 run): 0.04182; n-fold to virus (Feb2021) ([1]; infectivity n-fold relative to virus only, Feb2021 run): 1.757; Log10 of Rel to EFC (Feb2021) ([1]; log10 of infectivity relative to EF-C, Feb2021 run): -1.379
2 | KFKFQFW [TM71] | -0.7899 | 4953 | 6.817 | – | 0.1622 | 6.817 | -0.7899 | 0.1622 | -0.7899 | 1 | 3.529 | 3.529 | 1 (ThT. Cat is 1, if Rel. ThT >2) | 3.529 | – | 0% | 0.1622 | medium | – | – | –
3 | HHHHKIKIKIKIYYYY [TM6] | -0.1685 | 20713.33333 | 28.5 | – | 0.6784 | – | – | – | -0.1685 | 0.5 | 9.935 | 9.935 | 1 (ThT. Cat is 1, if Rel. ThT >2) | – | – | 0% | 0.6784 | medium | – | – | Rel-to EFC [1, 13]: 0.6784; n-fold to virus [1, 14]: 28.5
4 | QCKIKIQINMWQ [EF-C opt] | 0.01546 | – | – | 1.036 | 1.036 | 43.54 | 0.01546 | 1.036 | 0.01546 | 1 | 9.054 | – | 1 (ThT. Cat is 1, if Rel. ThT >2) | 9.054 | 48.38 | 48% and 48.38% | – | high | 43.54 | 21221.11111 | Rel-to EFC [1, 13]: 1.036; n-fold to virus [1, 14]: 43.54; infectivity [1, 15]: high
5 | CKIKIQINMWQ [MG1] | -0.155 | – | – | 0.6998 | 0.6998 | 29.41 | -0.155 | 0.6998 | -0.155 | 1 | 4.566 | – | 1 (ThT. Cat is 1, if Rel. ThT >2) | 4.566 | 44.89 | 45% and 44.89% | – | medium | 29.41 | 18623.33333 | –
6 | QCKFKQFF [CK12] | -1.907 | 170 | 0.5204 | – | 0.01239 | 0.5204 | -1.907 | 0.01239 | -1.907 | 1 | 2.349 | 2.349 | 1 (ThT. Cat is 1, if Rel. ThT >2) | 2.349 | – | 0% | 0.01239 | low | – | – | –
7 | KLKLQLL [TG4 / (KM2)] | -2.156 | 163.3 | 0.2934 | – | 0.006983 | – | – | – | -2.156 | 1 | 0.8415 | 0.8415 | 0 (ThT-inactive (N-Fold <2)) | – | – | 0% | 0.006983 | low | – | – | infectivity [1, 15]: low
8 | KIKIQI [JJA4] | -1.169 | – | – | 0.06771 | 0.06771 | 2.845 | -1.169 | 0.06771 | -1.169 | 0.5 | 1.097 | – | 0 (ThT-inactive (N-Fold <2)) | 1.097 | 38.6 | 39% and 38.6% | – | low | 2.845 | 550 | –
9 | CKFKQFFNM [CK14] | -0.3892 | 15720 | 17.15 | – | 0.4081 | 17.15 | -0.3892 | 0.4081 | -0.3892 | 1 | 45.97 | 45.97 | 1 (ThT. Cat is 1, if Rel. ThT >2) | 45.97 | – | 0% | 0.4081 | medium | – | – | Rel-to EFC [1, 13]: 0.4081; n-fold to virus [1, 14]: 17.15
10 | KAKAQANMWQ [JG3] | -2.146 | – | – | 0.007152 | 0.007152 | 0.3005 | -2.146 | 0.007152 | -2.146 | 0.5 | 0.9886 | – | 0 (ThT-inactive (N-Fold <2)) | 0.9886 | 42.81 | 43% and 42.81% | – | low | 0.3005 | 193.3 | Tht category (> 1.5 to blank = +) ([3]; FigS26): 0 (Tht category (> 1.5 to blank = +))
11 | RGDCKFKFQF [TM64/ CN15] | -0.8186 | 4637 | 6.381 | 0.1519 | 0.1519 | – | – | – | -0.8186 | 1 | 6.788 | 6.788 | 1 (ThT. Cat is 1, if Rel. ThT >2) | – | – | 47% and 46.68% | – | medium | – | – | –
12 | CRFRFQF [CN10] | – | – | – | – | 0.3439 | – | – | – | -0.4635 | 1 | – | – | 1 (ThT. Cat is 1, if Rel. ThT >2) | 3.455 | – | 39.77% | – | medium | 14.45 | 7508 | Log10 of Rel to EFC (Feb2021) ([1]; Feb2021, log10 of infectivity relative to EF-C): -0.4635
